Measured values as given in ChEMBL document CHEMBL3797052 (Eur J Med Chem, 2016).

Assays:
Assay type in all cases: functional
[1] = Antiproliferative activity against human Caki1 cells assessed as cell growth at 10^-5 M after 48 hrs by sulforhodamine B assay; details: CAKI-1, 48 h, read-out: Activity
[2] = Antiproliferative activity against human PC3 cells assessed as cell growth at 10^-5 M after 48 hrs by sulforhodamine B assay; details: PC-3, 48 h, read-out: Activity
MDA-MB-435 = experiment: Antiproliferative activity against human MDA-MB-435 cells assessed as cell growth at 10^-5 M after 48 hrs by sulforhodamine B assay; details: MDA-MB-435, 48 h, read-out: Activity
T47D = experiment: Antiproliferative activity against human T47D cells assessed as cell growth at 10^-5 M after 48 hrs by sulforhodamine B assay; details: read-out: Activity
[3] = Antiproliferative activity against human UACC62 cells assessed as cell growth at 10^-5 M after 48 hrs by sulforhodamine B assay; details: UACC-62, 48 h, read-out: Activity
SK-MEL-2 = experiment: Antiproliferative activity against human SK-MEL-2 cells assessed as cell growth at 10^-5 M after 48 hrs by sulforhodamine B assay; details: SK-MEL-2, 48 h, read-out: Activity
KM12 = experiment: Antiproliferative activity against human KM12 cells assessed as cell growth at 10^-5 M after 48 hrs by sulforhodamine B assay; details: KM12, 48 h, read-out: Activity
NCI-H322M = experiment: Antiproliferative activity against human NCI-H322M cells assessed as cell growth at 10^-5 M after 48 hrs by sulforhodamine B assay; details: read-out: Activity
[4] = Antiproliferative activity against human NCI-ADR-RES cells assessed as cell growth at 10^-5 M after 48 hrs by sulforhodamine B assay; details: read-out: Activity
NCI-H23 = experiment: Antiproliferative activity against human NCI-H23 cells assessed as cell growth at 10^-5 M after 48 hrs by sulforhodamine B assay; details: NCI-H23, 48 h, read-out: Activity
[5] = Antiproliferative activity against human Hs 578T cells assessed as cell growth at 10^-5 M after 48 hrs by sulforhodamine B assay; details: read-out: Activity
[6] = Antiproliferative activity against human HCT15 cells assessed as cell growth at 10^-5 M after 48 hrs by sulforhodamine B assay; details: HCT-15, 48 h, read-out: Activity
ACHN = experiment: Antiproliferative activity against human ACHN cells assessed as cell growth at 10^-5 M after 48 hrs by sulforhodamine B assay; details: read-out: Activity
MDA-MB-231 = experiment: Antiproliferative activity against human MDA-MB-231 cells assessed as cell growth at 10^-5 M after 48 hrs by sulforhodamine B assay; details: MDA-MB-231, 48 h, read-out: Activity
[7] = Antiproliferative activity against human RPMI8226 cells assessed as cell growth at 10^-5 M after 48 hrs by sulforhodamine B assay; details: RPMI-8226, 48 h, read-out: Activity
M14 = experiment: Antiproliferative activity against human M14 cells assessed as cell growth at 10^-5 M after 48 hrs by sulforhodamine B assay; details: M14, 48 h, read-out: Activity
[8] = Antiproliferative activity against human SF539 cells assessed as cell growth at 10^-5 M after 48 hrs by sulforhodamine B assay; details: SF-539, 48 h, read-out: Activity
CCRF-CEM = experiment: Antiproliferative activity against human CCRF-CEM cells assessed as cell growth at 10^-5 M after 48 hrs by sulforhodamine B assay; details: read-out: Activity
[9] = Antiproliferative activity against human UACC257 cells assessed as cell growth at 10^-5 M after 48 hrs by sulforhodamine B assay; details: UACC-257, 48 h, read-out: Activity
SK-MEL-28 = experiment: Antiproliferative activity against human SK-MEL-28 cells assessed as cell growth at 10^-5 M after 48 hrs by sulforhodamine B assay; details: SK-MEL-28, 48 h, read-out: Activity
[10] = Antiproliferative activity against human HOP62 cells assessed as cell growth at 10^-5 M after 48 hrs by sulforhodamine B assay; details: HOP-62, 48 h, read-out: Activity
[11] = Antiproliferative activity against human OVCAR4 cells assessed as cell growth at 10^-5 M after 48 hrs by sulforhodamine B assay; details: OVCAR-4, 48 h, read-out: Activity
SK-MEL-5 = experiment: Antiproliferative activity against human SK-MEL-5 cells assessed as cell growth at 10^-5 M after 48 hrs by sulforhodamine B assay; details: SK-MEL-5, 48 h, read-out: Activity
A498 = experiment: Antiproliferative activity against human A498 cells assessed as cell growth at 10^-5 M after 48 hrs by sulforhodamine B assay; details: A498, 48 h, read-out: Activity
[12] = Antiproliferative activity against human DU145 cells assessed as cell growth at 10^-5 M after 48 hrs by sulforhodamine B assay; details: DU-145, 48 h, read-out: Activity
[13] = Antiproliferative activity against human HOP92 cells assessed as growth inhibition after 48 hrs by sulforhodamine B assay; details: HOP-92, 48 h
[14] = Antiproliferative activity against human HOP92 cells assessed as cell growth at 10^-5 M after 48 hrs by sulforhodamine B assay; details: HOP-92, 48 h, read-out: Activity
[15] = Antiproliferative activity against human SNB19 cells assessed as cell growth at 10^-5 M after 48 hrs by sulforhodamine B assay; details: SNB-19, 48 h, read-out: Activity

SMILES | growth at 10 µM [1] [%] | growth at 10 µM [2] [%] | growth at 10 µM (MDA-MB-435) [%] | growth at 10 µM (T47D) [%] | growth at 10 µM (SK-MEL-2) [%] | growth at 10 µM (KM12) [%] | growth at 10 µM (NCI-H322M) [%] | growth at 10 µM [4] [%] | growth at 10 µM (NCI-H23) [%] | growth at 10 µM [5] [%] | growth at 10 µM [6] [%] | growth at 10 µM (ACHN) [%] | growth at 10 µM (MDA-MB-231) [%] | growth at 10 µM [7] [%] | growth at 10 µM (M14) [%] | growth at 10 µM [8] [%] | growth at 10 µM (CCRF-CEM) [%] | growth at 10 µM [10] [%] | growth at 10 µM [11] [%] | growth at 10 µM (SK-MEL-5) [%] | other results
CNC(=O)c1cc(Oc2ccc3nc(NC(=O)c4ccc(Cl)c(C(F)(F)F)c4)sc3c2)ccn1 | 95.2 | 62.7 | 80.4 | 64.8 | 96.5 | 67.7 | 87.4 | 64.9 | 69.1 | 66.2 | 85 | 60.6 | 75.3 | 64.8 | 89.9 | 69.9 | 68.4 | 83.7 | 36.7 | 70.9 | growth at 10 µM [3]: 81.1%; growth at 10 µM [9]: 75.3%; growth at 10 µM (SK-MEL-28): 83%; growth at 10 µM (A498): 69%; growth at 10 µM [12]: 73%
CNC(=O)c1cc(Oc2ccc(NC(=O)Nc3ccc(Cl)c(C(F)(F)F)c3)cc2)ccn1 [SORAFENIB] | – | – | – | – | – | – | – | – | – | – | – | – | – | – | – | – | – | – | – | – | TGI [13]: 5.01 µM
CNC(=O)c1cc(Oc2ccc3nc(NC(=O)Nc4ccc(Cl)cc4)sc3c2)ccn1 | 94.7 | 66 | 64.1 | 44 | 81.1 | 70 | 66.8 | 83.6 | 69 | 30.1 | 84.8 | 64.9 | 34.4 | 81.7 | 63 | 83.5 | 83.2 | 6.54 | 13 | 73.3 | growth at 10 µM [14]: 63.3%; growth at 10 µM [15]: 59.3%; growth at 10 µM (A498): 117%; growth at 10 µM [12]: 53.2%
CNC(=O)c1cc(Oc2ccc3nc(NC(=O)c4cccc(F)n4)sc3c2)ccn1 | 83 | 73 | 100 | 84.8 | 110 | 87.5 | 92.8 | 88.8 | 83 | 92.7 | 92.2 | 94.5 | 86 | 70.4 | 91.8 | 96.6 | 64.7 | 90 | 76 | 71.8 | growth at 10 µM [14]: 81.4%; growth at 10 µM [3]: 78%; growth at 10 µM [15]: 88.6%; growth at 10 µM [9]: 80.3%; growth at 10 µM (SK-MEL-28): 105%; growth at 10 µM (A498): 72.6%; growth at 10 µM [12]: 99.2%
CNC(=O)c1cc(Oc2ccc3nc(NC(=O)Nc4ccc(C(F)(F)F)cc4)sc3c2)ccn1 | 92 | 58.8 | 40.9 | 44.8 | 92.9 | 65 | 80.5 | 58.4 | 63.4 | 30 | 54.2 | 73.4 | 63.5 | 70.4 | 35.8 | 82.2 | 68.1 | 67.3 | 37.7 | 56.9 | growth at 10 µM [14]: 74.4%; growth at 10 µM [3]: 56%; growth at 10 µM [15]: 79.3%; growth at 10 µM [9]: 86.7%; growth at 10 µM (SK-MEL-28): 68.9%; growth at 10 µM (A498): 98.8%; growth at 10 µM [12]: 48.9%
CNC(=O)c1cc(Oc2ccc3nc(NC(=O)c4ccc5c(c4)OCCO5)sc3c2)ccn1 | 97.7 | 95.8 | 98.5 | 92.1 | 113 | 95.3 | 99 | 95.8 | 90 | 112 | 105 | 106 | 101 | 97.7 | 100 | 100 | 98.4 | 104 | 97.5 | 95.8 | growth at 10 µM [14]: 93.5%; growth at 10 µM [3]: 102%; growth at 10 µM [15]: 101%; growth at 10 µM [9]: 95%; growth at 10 µM (SK-MEL-28): 103%; growth at 10 µM (A498): 95.1%; growth at 10 µM [12]: 98.5%
CNC(=O)c1cc(Oc2ccc3nc(NC(=O)c4ccc5ncccc5c4)sc3c2)ccn1 | 89.9 | 93.2 | 91.6 | 51.3 | 86.2 | 101 | 99 | 88.8 | 92.7 | 108 | 91.1 | 102 | 98.6 | 71.9 | 102 | 107 | 91 | 112 | 87.4 | 86.4 | growth at 10 µM [14]: 110%; growth at 10 µM [3]: 94.9%; growth at 10 µM [15]: 95.1%; growth at 10 µM [9]: 93.1%; growth at 10 µM (SK-MEL-28): 101%; growth at 10 µM (A498): 88.3%; growth at 10 µM [12]: 105%
CNC(=O)c1cc(Oc2ccc3nc(NC(=O)Nc4ccc(F)cc4F)sc3c2)ccn1 | 88.4 | 65.9 | 62.5 | 56.5 | 74.7 | 72.6 | 62.2 | 45.5 | 47 | 44.5 | 84 | 60.6 | 47.6 | 72.9 | 69.1 | 61.7 | 89.7 | 60.7 | 34.2 | 39 | growth at 10 µM [14]: -13.7%; growth at 10 µM [3]: 65.1%; growth at 10 µM [15]: 71.1%; growth at 10 µM [9]: 74.3%; growth at 10 µM (SK-MEL-28): 52.1%; growth at 10 µM (A498): 10.9%; growth at 10 µM [12]: 65.7%
